Where two headings read alike, the source gives them in different places.

The subject of test [1] is ATR-driven phosphorylation of Chk1 kinase at Serine 345. The experiment in a line: pCHK1 cellular assay (CHK1 p-Ser345 AlphaScreen SureFire) in HT-29 cells. The note with it: 4-nitroquinoline N-oxide 12 uM, read-out: pCHK1 Cell IC50. It counts as cell-based. On the procedure:
Inhibitors of ATR kinase are effective at inhibiting the ATR-driven phosphorylation of the downstream target Chk1 kinase at Serine 345, following the addition of 4-nitroquinoline N-oxide, a chemical used to induce DNA damage. Cellular IC50 for the inhibitors of ATR described herein were measured in HT-29 colorectal adenocarcinoma cells. HT-29 cells were routinely maintained in McCoy's 5A media (ATCC Catalog #30-2007) supplemented with 10% fetal bovine serum (Sigma Catalog # F2442) and 1× Penicillin-Streptomycin (Gibco Catalog #15140-122) using a humidified incubator (37° C., 5% CO2, and ambient O2).
In preparation for the CHK1 (p-Ser345) ALPHASCREEN® SUREFIRE® assay, cells were harvested and resuspended in McCoy's 5A media supplemented with 10% fetal bovine serum and 1× Penicillin-Streptomycin. Cells were seeded onto a 384-well black CELLSTAR® Tissue Culture Plate (VWR Catalog #89085-314) at a density of 13,000 cells/well in a volume of 40 uL. The microplate was incubated overnight (approximately 20 hours) at 37° C. with 5% CO2 and ambient O2. Stock solutions of the test compounds were prepared in 100% DMSO (Sigma, Catalog # D2650) and serially diluted 1:3 using 100% DMSO. Compounds were additionally diluted 1:33 in culture medium, and 10 ul/well were transferred to the tissue culture plate. Following the compound addition the microplate was incubated at 37° C. for 90 minutes. 10 uL of 4-nitroquinoline N-oxide (Sigma Aldrich Catalog # N8141-1G) diluted in media (final concentration 12 uM) were added to the tissue culture plate followed by a 120 minute incubation at 37° C. The cells were then washed with PBS and lysed using 10 uL/well SUREFIRE® Kit lysis buffer diluted to 1× in water (PerkinElmer Catalog # TGRCHK1S50K), with mixing on an orbital shaker at 500 rpm for 20 min at RT. Lysates were frozen at −20° C. overnight.
4 uL/well of lysate was then transferred from the tissue culture plate to a 384-well, white, low volume, PROXIPLATE™ (PerkinElmer Catalog #600828). 5 uL/well of the acceptor bead solution, prepared by diluting SUREFIRE® Kit activation buffer (PerkinElmer Catalog # TGRCHK1S50K) and ALPHASCREEN® Protein A acceptor beads (PerkinElmer Catalog #6760617R) in SUREFIRE® Kit reaction buffer (PerkinElmer Catalog # TGRCHK1S50K), were added to the lysates under subdued light and incubated at room temperature for 120 min. 2 uL/well of the donor bead solution, prepared by diluting ALPHASCREEN® Streptavidin donor beads (PerkinElmer Catalog #6760617R) in SUREFIRE® Kit dilution buffer (PerkinElmer Catalog # TGRCHK1S50K), were added under subdued light and incubated at room temperature for an addition 120 minutes. The pCHK1 ALPHASCREEN® signal was measured using an ENVISION® plate reader (PerkinElmer). IC50 values were calculated using a four-parameter logistic curve fit using Genedata Screener software. Percent of control for each compound concentration was calculated by the following formula: 100*(Compound-Min)/(Max-Min) where “Max” is the high control, DMSO, and “Min” is the low control, 5 uM ATR inhibitor.
(Alpha assays give light when donor and acceptor beads are brought close together.)

Another test deals with ATR/ATRIP complex (Homo sapiens (Human), UniProt Q13535). The experiment in a line: ATR/ATRIP enzymatic assay (Caliper-based). The note with it: FAM-labeled RAD17 peptide, ATP; read-out: ATR/ATRIP Enzyme IC50. The test is classed as biochemical. As to the method:
Human full-length FLAG-TEV-ATR and His6-ATRIP were co-expressed in HEK293 cells. The cell pellet (20 g) was harvested and lysed in 100 mL of lysis buffer (20 mM Tris-HCl pH 7.5 at room temperature, 137 mM NaCl, 10% glycerol, 1 mM DTT, 1% (v/v) Tween-20, 0.1% (v/v) NP-40, complete protease inhibitor cocktail tablets, phosphatase inhibitor cocktail tablets, 2 mM MgCl2, 0.2 mM EDTA, and 1 mM ATP). After sonication and centrifugation, the supernatant was incubated at 4° C. for 3 hours with 1 mL of anti-FLAG resin (Sigma catalog # A2220) that had been pre-equilibrated in buffer A (20 mM Tris-HCl pH 7.5 at room temperature, 137 mM NaCl, 10% glycerol, 1 mM DTT, 2 mM MgCl2, and 0.2 mM EDTA). The sample was loaded into a column, and then washed with buffer A three times. Protein was subsequently eluted with 2 ml of buffer B (buffer A+200 μg/ml 3×FLAG peptide).
The ability of new chemical matter to inhibit the ATR catalytic activity in this ATR/ATRIP complex was assessed a Caliper-based assay. A 2× enzyme solution (i.e., 4 nM enzyme) was prepared using 1× Kinase Reaction Buffer (25 mM HEPES pH 8, 0.0055% Brij-35, 10 mM MnCl2, and 1 mM DTT). A 2× peptide solution was then prepared consisting of 10 uM FAM-labeled RAD17 peptide (GL Biochem, catalog #524315) in 1× Kinase Reaction Buffer supplemented with 2 μM ATP. 10 μL of the 2× enzyme solution was transferred to an assay plate containing 60 nL of test compound (from a 3× serial dilution) in 100% DMSO. Following a 30 minute incubation at 28° C., 10 μL of the 2× peptide solution was then transferred to the same assay plate. The reaction was allowed to incubate at 28° C. for 6 hours. After adding 30 μL of stop buffer (100 mM HEPES pH 7.5, 0.015% Brij-35, 0.2% Coating-3 Reagent (PerkinElmer, catalog # PN760050), and 50 mM EDTA), data were collected on a Caliper instrument. […] IC50 values were calculated using the following equation in XLFit: Y=Bottom+(Top-Bottom)/1+(IC50/X)^HillSlope).

Where [2] appears, read: Homo sapiens, HT-29, HT-29 colorectal adenocarcinoma cells.

ATR/ATRIP complex, sequence (Q13535 whole entry): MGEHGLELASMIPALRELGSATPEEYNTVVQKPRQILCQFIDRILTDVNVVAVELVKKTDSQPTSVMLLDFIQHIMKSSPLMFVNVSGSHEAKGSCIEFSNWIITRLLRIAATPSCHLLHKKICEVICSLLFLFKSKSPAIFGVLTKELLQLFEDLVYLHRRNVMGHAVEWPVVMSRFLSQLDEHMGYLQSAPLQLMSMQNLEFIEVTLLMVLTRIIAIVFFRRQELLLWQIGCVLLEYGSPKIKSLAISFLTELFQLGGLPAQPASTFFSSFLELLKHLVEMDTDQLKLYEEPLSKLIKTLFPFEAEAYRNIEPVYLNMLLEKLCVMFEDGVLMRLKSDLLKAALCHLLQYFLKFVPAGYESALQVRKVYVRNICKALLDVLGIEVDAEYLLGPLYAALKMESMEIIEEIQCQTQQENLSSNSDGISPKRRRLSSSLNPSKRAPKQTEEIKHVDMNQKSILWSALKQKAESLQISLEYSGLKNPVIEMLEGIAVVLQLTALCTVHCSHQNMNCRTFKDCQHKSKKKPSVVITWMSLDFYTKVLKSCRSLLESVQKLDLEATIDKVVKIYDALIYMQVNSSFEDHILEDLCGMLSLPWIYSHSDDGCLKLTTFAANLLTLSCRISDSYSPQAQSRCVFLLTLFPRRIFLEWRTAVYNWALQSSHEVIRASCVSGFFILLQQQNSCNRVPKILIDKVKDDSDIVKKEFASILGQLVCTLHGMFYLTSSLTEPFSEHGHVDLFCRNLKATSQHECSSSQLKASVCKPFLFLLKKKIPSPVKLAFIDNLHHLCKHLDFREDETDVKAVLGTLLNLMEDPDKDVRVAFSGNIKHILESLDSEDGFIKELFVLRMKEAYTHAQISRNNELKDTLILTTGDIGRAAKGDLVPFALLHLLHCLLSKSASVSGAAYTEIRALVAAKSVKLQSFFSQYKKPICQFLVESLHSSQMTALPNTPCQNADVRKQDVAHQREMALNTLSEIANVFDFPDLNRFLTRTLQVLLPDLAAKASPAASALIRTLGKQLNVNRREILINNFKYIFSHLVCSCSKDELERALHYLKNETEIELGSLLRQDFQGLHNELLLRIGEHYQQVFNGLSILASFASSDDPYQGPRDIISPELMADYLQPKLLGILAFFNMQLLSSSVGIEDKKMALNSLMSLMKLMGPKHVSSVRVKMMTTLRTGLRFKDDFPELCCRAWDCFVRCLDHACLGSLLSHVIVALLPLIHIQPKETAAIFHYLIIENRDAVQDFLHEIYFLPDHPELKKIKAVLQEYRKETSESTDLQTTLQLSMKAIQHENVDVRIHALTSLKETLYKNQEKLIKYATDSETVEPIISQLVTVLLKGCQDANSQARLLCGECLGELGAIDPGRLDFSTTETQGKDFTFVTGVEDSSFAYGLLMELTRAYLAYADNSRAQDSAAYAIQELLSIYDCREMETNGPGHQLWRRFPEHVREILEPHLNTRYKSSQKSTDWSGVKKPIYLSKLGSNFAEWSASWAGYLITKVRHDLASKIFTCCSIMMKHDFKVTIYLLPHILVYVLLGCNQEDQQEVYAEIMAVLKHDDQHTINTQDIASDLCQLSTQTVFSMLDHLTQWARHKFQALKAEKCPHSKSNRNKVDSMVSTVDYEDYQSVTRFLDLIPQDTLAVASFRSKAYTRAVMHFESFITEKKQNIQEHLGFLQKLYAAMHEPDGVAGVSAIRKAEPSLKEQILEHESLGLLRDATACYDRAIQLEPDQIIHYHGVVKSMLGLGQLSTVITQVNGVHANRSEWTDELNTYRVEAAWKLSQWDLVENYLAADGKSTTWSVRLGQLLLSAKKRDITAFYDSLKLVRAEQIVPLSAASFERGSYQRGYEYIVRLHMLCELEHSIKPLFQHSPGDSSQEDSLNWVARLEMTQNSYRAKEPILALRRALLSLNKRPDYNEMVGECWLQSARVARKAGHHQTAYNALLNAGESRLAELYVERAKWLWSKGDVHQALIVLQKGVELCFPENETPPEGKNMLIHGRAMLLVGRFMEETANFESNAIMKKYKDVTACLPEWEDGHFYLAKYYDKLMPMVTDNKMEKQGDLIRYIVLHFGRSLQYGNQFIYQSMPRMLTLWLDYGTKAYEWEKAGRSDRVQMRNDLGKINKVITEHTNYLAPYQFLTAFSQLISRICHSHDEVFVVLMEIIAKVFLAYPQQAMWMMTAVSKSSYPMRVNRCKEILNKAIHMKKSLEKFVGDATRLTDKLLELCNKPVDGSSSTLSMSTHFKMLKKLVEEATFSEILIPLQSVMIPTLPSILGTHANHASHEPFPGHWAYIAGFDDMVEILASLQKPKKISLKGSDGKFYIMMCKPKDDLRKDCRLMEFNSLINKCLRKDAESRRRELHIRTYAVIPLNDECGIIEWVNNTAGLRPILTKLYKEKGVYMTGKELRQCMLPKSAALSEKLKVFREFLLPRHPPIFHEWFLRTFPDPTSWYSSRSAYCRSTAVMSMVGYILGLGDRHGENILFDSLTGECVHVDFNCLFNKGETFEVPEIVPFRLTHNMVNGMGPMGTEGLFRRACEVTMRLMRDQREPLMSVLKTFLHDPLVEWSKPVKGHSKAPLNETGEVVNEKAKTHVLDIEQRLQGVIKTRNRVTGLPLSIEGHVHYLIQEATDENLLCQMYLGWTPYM
ATR/ATRIP complex, sequence (Q8WXE1 whole entry partner): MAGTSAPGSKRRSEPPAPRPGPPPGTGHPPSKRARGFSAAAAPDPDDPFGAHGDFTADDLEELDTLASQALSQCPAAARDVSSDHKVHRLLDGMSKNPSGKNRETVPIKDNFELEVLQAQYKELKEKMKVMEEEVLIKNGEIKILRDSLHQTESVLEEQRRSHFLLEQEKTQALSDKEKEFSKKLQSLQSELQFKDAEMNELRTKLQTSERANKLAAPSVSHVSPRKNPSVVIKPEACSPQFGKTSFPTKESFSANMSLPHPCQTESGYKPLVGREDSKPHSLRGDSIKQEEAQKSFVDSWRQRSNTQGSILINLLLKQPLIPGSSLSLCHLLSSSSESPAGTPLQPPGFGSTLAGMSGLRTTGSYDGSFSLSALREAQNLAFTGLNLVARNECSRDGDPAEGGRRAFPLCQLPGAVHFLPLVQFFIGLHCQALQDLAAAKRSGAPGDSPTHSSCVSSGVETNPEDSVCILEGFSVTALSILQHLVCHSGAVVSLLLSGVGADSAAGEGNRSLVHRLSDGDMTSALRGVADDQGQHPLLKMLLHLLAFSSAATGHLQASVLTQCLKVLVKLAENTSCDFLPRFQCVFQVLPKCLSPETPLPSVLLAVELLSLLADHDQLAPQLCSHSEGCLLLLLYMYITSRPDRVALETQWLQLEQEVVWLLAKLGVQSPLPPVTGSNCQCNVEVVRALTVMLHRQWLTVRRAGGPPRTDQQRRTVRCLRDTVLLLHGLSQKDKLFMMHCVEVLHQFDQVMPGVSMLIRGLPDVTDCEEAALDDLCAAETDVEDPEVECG

With `C[C@@H]1Cc2ncnc([C@H]3CCN(S(C)(=O)=O)C(C)(C)C3)c2CN1c1ccnc2[nH]ccc12` (single isomer, unassigned) [Example 48b], the IC50 in test [1] (setting [2]) was 0.079 µM.
For `C[C@@H]1Cc2ncnc(C3CCCN(S(C)(=O)=O)C3)c2CN1c1cc(Cl)nc2[nH]ccc12` (single isomer, unassigned) [Example 51a], on ATR/ATRIP complex, the IC50 stood at 0.561 µM.
Same read-out and setting: the value for `C[C@@H]1Cc2ncnc(C3CCCN(S(C)(=O)=O)C3)c2CN1c1cc(Cl)nc2[nH]ccc12` (single isomer, unassigned) [Example 51b] was 2.21 µM.
Take `C[C@@H]1Cc2ncnc(N3CCC(S(C)(=O)=O)CC3)c2CN1c1cc(Cl)nc2[nH]ccc12` [Example 9, (R)-6-(6-Chloro-1H-pyrrolo[2,3-b]pyridin-4-yl)-7-methyl-4-(4-(methylsulfonyl)-piperidin-1-yl)-5,6,7,8-tetrahydropyrido[4,3-d]pyrimidine bis(trifluoroacetate)]: the IC50 in test [1] (HT-29 colorectal adenocarcinoma cells) came out at 0.025 µM.
In the case of `C[C@@H]1Cc2ncnc([C@H]3CCN(S(C)(=O)=O)C3)c2CN1c1ccnc2[nH]ccc12` [Example 57b, (R)-7-methyl-4-((S)-1-(methylsulfonyl)pyrrolidin-3-yl)-6-(1H-pyrrolo[2,3-b]pyridin-4-yl)-5,6,7,8-tetrahydropyrido[4,3-d]pyrimidine], the IC50 in test [1] (setting [2]) was 0.394 µM.
As to `C[C@@H]1Cc2ncnc(N3C[C@H]4CC[C@@H](C3)[C@H]4NS(C)(=O)=O)c2CN1c1ccnc2[nH]ccc12` [Example 74, N-((1R,5S,8R)-3-((R)-7-methyl-6-(1H-pyrrolo[2,3-b]pyridin-4-yl)-5,6,7,8-tetrahydropyrido[4,3-d]pyrimidin-4-yl)-3-azabicyclo[3.2.1]octan-8-yl)methanesulfonamide], the IC50 in test [1] (setting [2]) came out at 0.031 µM; on ATR/ATRIP complex it was 0.279 µM.
Take `C[C@@H]1Cc2ncnc(N3CCC(S(C)(=O)=O)CC3)c2CN1c1ccnc2[nH]ccc12` [Example 88, (R)-7-methyl-4-(4-(methylsulfonyl)piperidin-1-yl)-6-(1H-pyrrolo[2,3-b]pyridin-4-yl)-5,6,7,8-tetrahydropyrido[4,3-d]pyrimidine]: in test [1] (setting [2]), the IC50 is 0.085 µM.

The record behind these values is US10745420B2, “Tetrahydropyrido[4,3-d]pyrimidine inhibitors of ATR kinase” (Board of Regents, The University of Texas System, priority 2017, dated 2020).
